Values after ≈ are worked out from the molar mass of the structure shown. Where a SMILES comes first, the peptide text is derived from it. Bridges are numbered along the chain shown (N, C = ends). Roman numbers before positions name the chains, in order. [ ]: non-standard residue; d: D form. Pen = CC(C)(S)[C@H](N)C(=O)O; Tle = CC(C)(C)[C@H](N)C(=O)O; NMeV = CN[C@H](C(=O)O)C(C)C; d(hSer) = N[C@H](CCO)C(=O)O; dDab = NCC[C@@H](N)C(=O)O; hSer = N[C@@H](CCO)C(=O)O; Orn = NCCC[C@H](N)C(=O)O; Dab = NCC[C@H](N)C(=O)O; Dap = NC[C@H](N)C(=O)O
Assays:
Format in all cases: cell-based
[1] = test system: human red blood cells (hRBC); experiment: Hemolysis; conditions: red cells of human, 1 h, 200
Procedure, shortened: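 Read-out is supernatant absorbance at 540 nm, normalised to full lysis by 2% Triton X-100 and zero lysis by PBS with 10% water. Peptides (200 μg/mL) were exposed to 20% v/v washed human erythrocytes at 37° C for 1 h under shaking.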

[2] = test system: Pseudomonas aeruginosa ATCC 27853; conditions: ATCC 27853
Procedure, shortened: (§1)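 CLSI broth microdilution in cation-adjusted Mueller-Hinton II broth with 0.002% polysorbate 80 (final), inoculum appr. 10^6 CFU/mL, peptides in serial two-fold dilutions. MIC (μg/mL) is the lowest concentration without visible growth after 18-20 h at 35° C.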

[3] = test system: Escherichia coli ATCC 25922; conditions: ATCC 25922
Procedure, shortened: as §1

Escherichia coli 926415 = conditions: 926415
Procedure, shortened: as §1

[4] = test system: Klebsiella pneumoniae SSI #3010; conditions: SSI #3010
Procedure, shortened: as §1

[5] = test system: Acinetobacter baumannii 872842; conditions: 872842
Procedure, shortened: as §1

[6] = test system: Acinetobacter baumannii DSM 30008; conditions: DSM 30008
Procedure, shortened: as §1

[7] = test system: Klebsiella pneumoniae 968733; conditions: 968733
Procedure, shortened: as §1

[8] = test system: Enterobacter cloacae 848840; conditions: 848840
Procedure, shortened: as §1

SMILES | Hemolysis at 200 μg/mL [1] [%] | Pseudomonas aeruginosa ATCC 27853 MIC [2] [µg/mL] | Escherichia coli ATCC 25922 MIC [3] [µg/mL] | MIC (Escherichia coli 926415) [µg/mL] | Klebsiella pneumoniae SSI #3010 MIC [4] [µg/mL] | MIC [5] [µg/mL] | Acinetobacter baumannii DSM 30008 MIC [6] [µg/mL] | MIC [7] [µg/mL] | MIC [8] [µg/mL] | MIC [2] [µg/mL] | MIC [3] [µg/mL] | MIC [4] [µg/mL] | MIC [6] [µg/mL]
CC(=O)N[C@H](C(=O)N[C@H]1CSSC[C@@H](C(=O)N[C@@H](CO)C(N)=O)NC(=O)[C@H](C(C)C)NC(=O)[C@H](CO)NC(=O)[C@H](Cc2c[nH]c3ccccc23)NC(=O)[C@H](CO)NC(=O)[C@@H](CCN)NC(=O)[C@H](CCC(=O)N[C@@H](CCN)C(=O)N[C@@H](CCO)C(=O)N[C@@H](CN)C(=O)N[C@H]2CCNC(=O)[C@H]([C@@H](C)O)NC(=O)[C@H](CCN)NC(=O)[C@H](CCN)NC(=O)[C@H](CC(C)C)NC(=O)[C@@H](CC(C)C)NC(=O)[C@H](CCN)NC2=O)NC(=O)[C@H](CCN)NC(=O)[C@H](Cc2ccc(O)cc2)NC1=O)C(C)C [Ex. 308] (I: Ac-VCY[Dab]E[dDab]SWSVCS-NH2 / II: [Dab][hSer][Dap][Dab][Dab][dL]L[Dab][Dab]T; disulfide I:2-I:11; amide I:5-II:N; lactam II:4-II:C) | <1 | 0.125 | 0.0625 | 0.5 (≈ 0.208 µM) | 0.25 | 0.5 (≈ 0.208 µM) | 0.125 | 1 (≈ 0.417 µM) | 1 (≈ 0.417 µM) |  |  |  | 
CC(=O)N[C@@H](CCN)C(=O)N[C@H](C(=O)N[C@H]1CSSC[C@@H](C(=O)N[C@H](C(=O)N[C@@H](C)C(=O)N[C@H](C(=O)N[C@@H](CCC(=O)O)C(N)=O)C(C)C)C(C)(C)C)NC(=O)[C@H](Cc2c[nH]c3ccccc23)NC(=O)[C@H](CO)NC(=O)[C@@H](CCN)NC(=O)[C@H](CCC(=O)N[C@@H](CCN)C(=O)N[C@H](C(=O)N[C@@H](CN)C(=O)N[C@H]2CCNC(=O)[C@H]([C@@H](C)O)NC(=O)[C@H](CCN)NC(=O)[C@H](CCN)NC(=O)[C@H](CC(C)C)NC(=O)[C@@H](CC(C)C)NC(=O)[C@H](CCN)NC2=O)[C@@H](C)O)NC(=O)[C@H](CN)NC(=O)[C@H](Cc2ccc(O)cc2)NC1=O)C(C)C [Ex. 246] (I: Ac-[Dab]VCY[Dap]E[dDab]SWC[Tle]AVE-NH2 / II: [Dab]T[Dap][Dab][Dab][dL]L[Dab][Dab]T; disulfide I:3-I:10; amide I:6-II:N; lactam II:4-II:C) | <1 |  |  | 2 (≈ 0.762 µM) |  | 4 (≈ 1.52 µM) |  | 4 (≈ 1.52 µM) | 2 (≈ 0.762 µM) | 0.25 (≈ 0.0953 µM) | 0.25 (≈ 0.0953 µM) | 0.25 (≈ 0.0953 µM) | 0.5 (≈ 0.191 µM)
CC(=O)N[C@H](C(=O)N[C@H]1CCNC(=O)C[C@@H](C(=O)N[C@@H](CO)C(N)=O)NC(=O)[C@H](C(C)(C)C)NC(=O)[C@H](CO)NC(=O)[C@H](Cc2c[nH]c3ccccc23)NC(=O)[C@H](CO)NC(=O)[C@@H](CCN)NC(=O)[C@H](CCC(=O)N[C@@H](CCN)C(=O)N[C@H](C(=O)N[C@@H](CN)C(=O)N[C@H]2CCNC(=O)[C@H]([C@@H](C)O)NC(=O)[C@H](CCN)NC(=O)[C@H](CCN)NC(=O)[C@H](CC(C)C)NC(=O)[C@@H](CC(C)C)NC(=O)[C@H](CCN)NC2=O)[C@@H](C)O)NC(=O)[C@H](CN)NC(=O)[C@H](Cc2ccc(O)cc2)NC1=O)C(C)C [Ex. 148] (I: Ac-V[Dab]Y[Dap]E[dDab]SWS[Tle]DS-NH2 / II: [Dab]T[Dap][Dab][Dab][dL]L[Dab][Dab]T; lactam I:2-I:11, II:4-II:C; amide I:5-II:N) | <1 |  |  | 0.125 (≈ 0.0523 µM) |  | 0.0625 (≈ 0.0261 µM) |  | 0.25 (≈ 0.105 µM) | 0.0625 (≈ 0.0261 µM) | 0.125 (≈ 0.0523 µM) | 0.03125 (≈ 0.0131 µM) | 0.0625 (≈ 0.0261 µM) | 0.03125 (≈ 0.0131 µM)
CC(=O)N[C@H](C(=O)N[C@H]1CCCNC(=O)[C@@H](CCO)NC(=O)[C@H](C(C)(C)C)NC(=O)[C@H](CO)NC(=O)[C@H](Cc2c[nH]c3ccccc23)NC(=O)[C@H](CCO)NC(=O)[C@@H](CCN)NC(=O)[C@H](CCC(=O)N[C@@H](CCN)C(=O)N[C@H](C(=O)N[C@@H](CN)C(=O)N[C@H]2CCNC(=O)[C@H]([C@@H](C)O)NC(=O)[C@H](CCN)NC(=O)[C@H](CCN)NC(=O)[C@H](CC(C)C)NC(=O)[C@@H](CC(C)C)NC(=O)[C@H](CCN)NC2=O)[C@@H](C)O)NC(=O)[C@H](CO)NC(=O)[C@H](Cc2ccc(O)cc2)NC1=O)C(C)C [Ex. 22] (I: Ac-V[Orn]YSE[dDab][hSer]WS[Tle][d(hSer)] / II: [Dab]T[Dap][Dab][Dab][dL]L[Dab][Dab]T; lactam I:2-I:C, II:4-II:C; amide I:5-II:N) | <1 |  |  | 0.5 (≈ 0.215 µM) |  | 0.25 (≈ 0.108 µM) |  | 1 (≈ 0.431 µM) | 0.125 (≈ 0.0539 µM) | 0.5 (≈ 0.215 µM) | 0.0625 (≈ 0.0269 µM) | 0.125 (≈ 0.0539 µM) | 0.0625 (≈ 0.0269 µM)
CN[C@H](C(=O)N[C@@H](CN)C(=O)N[C@@H](Cc1ccc(O)cc1)C(=O)N[C@@H]1C(=O)N[C@@H](CCC(=O)N[C@@H](CCN)C(=O)N[C@H](C(=O)N[C@@H](CCN)C(=O)N[C@H]2CCNC(=O)[C@H]([C@@H](C)O)NC(=O)[C@H](CCN)NC(=O)[C@H](CCN)NC(=O)[C@H](CC(C)C)NC(=O)[C@@H](CC(C)C)NC(=O)[C@H](CCN)NC2=O)[C@@H](C)O)C(=O)N[C@H](CCN)C(=O)N[C@@H]([C@@H](C)O)C(=O)N[C@@H](Cc2c[nH]c3ccccc23)C(=O)N[C@H](C(=O)N[C@H](C(=O)N[C@@H](C)C(=O)N[C@@H](CO)C(N)=O)C(C)(C)C)CSSC1(C)C)C(C)C [Ex. 181] (I: H-[NMeV][Dap]Y[Pen]E[dDab]TWC[Tle]AS-NH2 / II: [Dab]T[Dab][Dab][Dab][dL]L[Dab][Dab]T; disulfide I:4-I:9; amide I:5-II:N; lactam II:4-II:C) | <1 |  |  | 2 (≈ 0.83 µM) |  | 2 (≈ 0.83 µM) |  | 8 (≈ 3.32 µM) | 1 (≈ 0.415 µM) | 0.5 (≈ 0.207 µM) | 0.25 (≈ 0.104 µM) | 0.5 (≈ 0.207 µM) | 0.25 (≈ 0.104 µM)
CC[C@H](C)[C@@H]1NC(=O)[C@H](CO)NC(=O)[C@H](Cc2c[nH]c3ccccc23)NC(=O)[C@H](CO)NC(=O)[C@@H](CCN)NC(=O)[C@H](CCC(=O)N[C@@H](CCN)C(=O)N[C@H](C(=O)N[C@@H](CN)C(=O)N[C@H]2CCNC(=O)[C@H]([C@@H](C)O)NC(=O)[C@H](CCN)NC(=O)[C@H](CCN)NC(=O)[C@H](CC(C)C)NC(=O)[C@@H](CC(C)C)NC(=O)[C@H](CCN)NC2=O)[C@@H](C)O)NC(=O)[C@H](CCN)NC(=O)[C@H](Cc2ccc(O)cc2)NC(=O)[C@@H](NC(=O)[C@@H](NC(C)=O)C(C)C)CSSC[C@@H](C(=O)N[C@@H](CO)C(N)=O)NC1=O [Ex. 315] (I: Ac-VCY[Dab]E[dDab]SWSICS-NH2 / II: [Dab]T[Dap][Dab][Dab][dL]L[Dab][Dab]T; disulfide I:2-I:11; amide I:5-II:N; lactam II:4-II:C) | 2 | 0.0625 | 0.01562 | 0.0625 (≈ 0.0259 µM) | 0.0625 | 0.0625 (≈ 0.0259 µM) | 0.01562 | 0.0625 (≈ 0.0259 µM) | 0.125 (≈ 0.0518 µM) |  |  |  | 
CC(C)C[C@@H]1NC(=O)[C@@H](CC(C)C)NC(=O)[C@H](CCN)NC(=O)[C@@H](NC(=O)[C@H](CCN)NC(=O)[C@@H](NC(=O)[C@H](CCN)NC(=O)CC[C@@H]2NC(=O)[C@H](CCN)NC(=O)[C@H](Cc3ccc(O)cc3)NC(=O)[C@@H](NC(=O)[C@@H](N)C(C)C)CSSC[C@@H](C(=O)N[C@@H](CO)C(N)=O)NC(=O)[C@H](C(C)C)NC(=O)[C@H](CCO)NC(=O)[C@H](Cc3c[nH]c4ccccc34)NC(=O)[C@H](CCO)NC(=O)[C@@H](CCN)NC2=O)[C@@H](C)O)CCNC(=O)[C@H]([C@@H](C)O)NC(=O)[C@H](CCN)NC(=O)[C@H](CCN)NC1=O [Ex. 48] (I: H-VCY[Dab]E[dDab][hSer]W[hSer]VCS-NH2 / II: [Dab]T[Dab][Dab][Dab][dL]L[Dab][Dab]T; disulfide I:2-I:11; amide I:5-II:N; lactam II:4-II:C) | <1 |  |  | 1 (≈ 0.417 µM) |  | 0.5 (≈ 0.208 µM) |  | 8 (≈ 3.33 µM) | 4 (≈ 1.67 µM) | 0.125 (≈ 0.0521 µM) | 0.25 (≈ 0.104 µM) | 0.25 (≈ 0.104 µM) | 0.25 (≈ 0.104 µM)
CN[C@H](C(=O)N[C@H]1CSSC[C@@H](C(=O)N[C@@H](CO)C(N)=O)NC(=O)[C@H](C(C)(C)C)NC(=O)[C@H](CCO)NC(=O)[C@H](Cc2c[nH]c3ccccc23)NC(=O)[C@H](CCO)NC(=O)[C@@H](CCN)NC(=O)[C@H](CCC(=O)N[C@@H](CCN)C(=O)N[C@H](C(=O)N[C@@H](CCN)C(=O)N[C@H]2CCNC(=O)[C@H]([C@@H](C)O)NC(=O)[C@H](CCN)NC(=O)[C@H](CCN)NC(=O)[C@H](CC(C)C)NC(=O)[C@@H](CC(C)C)NC(=O)[C@H](CCN)NC2=O)[C@@H](C)O)NC(=O)[C@H](CCN)NC(=O)[C@H](Cc2ccc(O)cc2)NC1=O)C(C)C [Ex. 51] (I: H-[NMeV]CY[Dab]E[dDab][hSer]W[hSer][Tle]CS-NH2 / II: [Dab]T[Dab][Dab][Dab][dL]L[Dab][Dab]T; disulfide I:2-I:11; amide I:5-II:N; lactam II:4-II:C) | <1 |  |  | 0.5 (≈ 0.206 µM) |  | 0.25 (≈ 0.103 µM) |  | 1 (≈ 0.412 µM) | 0.5 (≈ 0.206 µM) | 0.125 (≈ 0.0515 µM) | 0.25 (≈ 0.103 µM) | 0.125 (≈ 0.0515 µM) | 0.5 (≈ 0.206 µM)
